Patent US20240246935A1 (Plexium, Inc., priority 2021, published 2024)

How the values were obtained:
IKZF2 (Helios) = test: IKZF2 reporter degradation assay (HEK 293T IKZF2-mNeonGreen reporter cell line); format: cell-based, human; conditions: HEK 293T IKZF2 reporter cells, 24 hour incubation; for IKZF2 % Degradation @ 1 μM: 1 μM compound
Outline: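 HEK 293T lines stably expressing each IKZF-GGGGS×3-mNeonGreen-P2A-mScarlet reporter, 4000 cells/well in FluoroBrite medium, treated with compound (≤0.5% DMSO) for 24 h at 37 °C. Imaging measured percent mNeonGreen-positive cells, with mScarlet used for segmentation; DC50 from four-parameter logistic fit.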

IKZF3 (Aiolos) = test: IKZF3 reporter degradation assay (HEK 293T IKZF3-mNeonGreen reporter cell line); format: cell-based, human; conditions: HEK 293T IKZF3 reporter cells, 24 hour incubation
Excerpt: (§1) Polycistronic plasmids were constructed for the mammalian expression of fluorescent reporter fusions of human transcription factors IKZF1 (Ikaros), IKZF2 (Helios), and IKZF3 (Aiolos). The respective protein sequences had their C-terminal end joined to a GGGGS linker repeated three times followed by mNeonGreen, P2A sequence, and mScarlet. The DNA sequences of the open reading frames are as follows:
(§2) IKZF1, IKZF2, and IKZF3 constructs were cloned into the UCOE Hygromycin expression vectors (Millipore Sigma). Reporter constructs were transfected using cationic lipid reagents into adherent HEK 293T cells and stable integrants were selected by treatment with 200 μg/mL hygromycin B. Clonal populations were obtained from the population of stable integrants either by limiting dilution or fluorescence activated cell sorting.
(§3) The clonal stable cell lines were maintained under constant 200 μg/mL hygromycin B selection while being passaged for use in the degradation assays. […] The fluorescence intensity of the IKZF1/2/3-mNeonGreen (FITC channel) and mScarlet (PE channel) reporters were routinely analyzed by flow cytometry to confirm consistent expression levels between experiments.
(§4) The IKZF1/IKZF2/IKZF3 degradation assays were carried out by harvesting the HEK 293T reporter cell lines and resuspending the cells in media formulated for reduced background fluorescence (FluoroBrite; Thermo Fisher). The respective cell lines were seeded at a density of 4000 cells/well into black-walled 384-well optical grade assay tissue culture plates. The cells were incubated overnight at 37° C. to allow for attachment to the assay plate. Dilutions of the compounds were prepared in DMSO from 10 mM compound stocks. The assay plates were treated with appropriate concentrations of the compounds by dispensing the DMSO dilutions in quadruplicate wells with an upper limit of 0.5% final DMSO.
(§5) After 24 hour incubation with the compounds, the assay plates were imaged on an ImageXpress Pico microscopy system (cells maintained at 37° C. during imaging) to obtain the fluorescent readouts. The assay plates were imaged in the FITC and Tetramethylrhodamine (TRITC) channels to obtain the mNeonGreen fluorescence intensity (reporter degradation data) and mScarlet fluorescence intensity (for cell segmentation). 293T-IKZF1 and 293T-IKZF3 reporter cell lines were imaged with exposures of 500 milliseconds (ms) for both FITC and TRITC channels, while the 293T-IKZF2 reporter cell line was imaged with exposures of 1000 ms for FITC and 1250 ms for TRITC. The resulting data was analyzed with Cell Reporter Xpress software using the 2-channel cell scoring analysis with a “percent positive” readout. The TRITC channel was selected for the “nuclei” segmentation with a threshold of 20 while the FITC channel was selected for the “Marker 1” segmentation and a threshold of 100 for the IKZF1 and IKZF3 reporter lines. […] The minimum segmentation width was set to 6 micrometers and the maximum segmentation width was set to 15 micrometers for all cell lines. The DCs calculations were determined by regression to best fit four-parameter logistic curves using GraphPad Prism.

IKZF1 (Ikaros) = test: IKZF1 reporter degradation assay (HEK 293T IKZF1-mNeonGreen reporter cell line); format: cell-based, human; conditions: HEK 293T IKZF1 reporter cells, 24 hour incubation
Excerpt: as §1, §2, §3, §4, §5

GSPT1 = GSPT1 (Homo sapiens (Human), UniProt P15170+Q96SW2); test: GSPT1 reporter degradation assay (HEK293 hGSPT1 HiBiT-tagged cells); format: cell-based; conditions: 24 hour incubation
Experimental: HEK293_hGSPT1_HiBiT-tagged cells were generated using CRISPR-Cas12a technology. Briefly, ˜400,000 HEK293 cells were transiently co-transfected with precomplexed ribonuclear proteins (RNPs) consisting of 80 pmol of crRNA (IDT), 62 pmol of Cas12a protein (IDT), 3 μg of ssODN donor (IDT; AltR® modifications), 78 pmol of electroporation enhancer (IDT), and 200 ng of pMaxGFP (Lonza). The transfection was performed via nucleofection (Lonza, 4D-Nucleofector X-unit) using solution P3 and program CM-130 in a (20 μL) cuvette. Five days post-nucleofection, cells were single-cell-sorted for GFP+(transfected) cells by FACs in 96-well plates and clonally selected. Clones were screened and verified for the desired modification via targeted deep sequencing using gene-specific primers with partial Illumina adapter overhangs as previously described. In brief, clonal cell pellets were harvested, lysed, and used to generate gene-specific amplicons with partial Illumina adapters in PCR #1. Amplicons were indexed in PCR #2 and pooled with other targeted amplicons for other loci to create sequence diversity. Additionally, 10% PhiX sequencing control V3 (Illumina) was added to the pooled amplicon library prior to running the sample on a Miseq Sequencer System (Illumina) to generate paired 2×250 bp reads. Samples were demultiplexed using the index sequences, fastq files were generated, and NGS analysis was performed using CRIS.py. Final clones were authenticated using the PowerPlex fusion system (Promega) and tested negative for mycoplasma by the MycoAlert™Plus mycoplasma detection kit (Lonza).
Editing construct sequences and screening primers are outlined below (sequence from 5′ to 3′). hGSPT1Cas12acrRNA, CAGE635.GSPT1.g1: […] (SEQ ID NO: 4); CAGE635.g1.anti.ssODN: ttcctcacagtattgtgcagggtcatcaagaaaatgctta[…] CAGCCGCTCACgtcCttctctggaaccagtttcagaacttttccaattgcaatggtcttacctagaaatgaaattttaa (HiBiT tag and silent blocking modifications to prevent Cas12a recutting after integration are in upper case) (SEQ ID NO: 5); CAGE635.hGSPT1.DS.F: […] (SEQ ID NO: 6); CAGE635.hGSPT1.DS.R: GTGAA GTAGGCTTCTGCAGTC (SEQ ID NO: 7).
The GSPT1 degradation assay was carried out by harvesting the HEK 293T reporter cell lines and resuspending the cells in media formulated for reduced background fluorescence (FluoroBrite; Thermo Fisher). The respective cell lines were seeded at a density of 8,000 cells/well into white-opaque 384-well optical grade assay tissue culture plates (Greiner 781080-20). The cells were incubated overnight at 37° C. to allow for attachment to the assay plate. Dilutions of the compounds were prepared in DMSO from 10 mM compound stocks. Test compounds were added in a 10-point dilution series (typically 10 μM to […]) using a TECAN D300e Digital Dispenser with an upper limit of 0.5% final DMSO. Plates were centrifuged at 320×g for 2 minutes at room temperature, and subsequently incubated at 37° C.
After 24 hour incubation with the compounds, the plates were allowed to cool to room temperature for 10 minutes. 30 μL of HiBiT lytic buffer+1:50 HiBiT substrate Solution were added to each well. Plates were centrifuged at 320×g for 2 minutes at room temperature and then incubated with shaking at room temperature for 10 minutes covered with foil. Plates were read on a CLARIOstar microplate reader (BMG LabTech), measuring at 450 nm (donor emission) and 610 nm or 630 nm (acceptor emission). The DC50 values were determined by regression to best fit four-parameter logistic curves using GraphPad Prism.

Sequence of GSPT1 (P15170 whole entry): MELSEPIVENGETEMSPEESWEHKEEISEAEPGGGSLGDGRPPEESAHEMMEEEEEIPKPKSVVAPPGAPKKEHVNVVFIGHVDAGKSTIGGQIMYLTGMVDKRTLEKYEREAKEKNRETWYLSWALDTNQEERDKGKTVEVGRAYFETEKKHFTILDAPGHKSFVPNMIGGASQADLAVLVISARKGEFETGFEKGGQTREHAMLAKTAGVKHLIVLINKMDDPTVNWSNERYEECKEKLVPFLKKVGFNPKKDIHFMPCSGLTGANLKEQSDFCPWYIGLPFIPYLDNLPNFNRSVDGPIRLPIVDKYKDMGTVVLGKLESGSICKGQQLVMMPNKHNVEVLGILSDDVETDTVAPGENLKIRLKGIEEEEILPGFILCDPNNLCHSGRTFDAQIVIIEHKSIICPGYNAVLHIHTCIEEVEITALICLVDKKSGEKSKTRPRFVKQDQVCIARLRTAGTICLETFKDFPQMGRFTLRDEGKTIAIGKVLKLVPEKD
Sequence of GSPT1 (Q96SW2 whole entry): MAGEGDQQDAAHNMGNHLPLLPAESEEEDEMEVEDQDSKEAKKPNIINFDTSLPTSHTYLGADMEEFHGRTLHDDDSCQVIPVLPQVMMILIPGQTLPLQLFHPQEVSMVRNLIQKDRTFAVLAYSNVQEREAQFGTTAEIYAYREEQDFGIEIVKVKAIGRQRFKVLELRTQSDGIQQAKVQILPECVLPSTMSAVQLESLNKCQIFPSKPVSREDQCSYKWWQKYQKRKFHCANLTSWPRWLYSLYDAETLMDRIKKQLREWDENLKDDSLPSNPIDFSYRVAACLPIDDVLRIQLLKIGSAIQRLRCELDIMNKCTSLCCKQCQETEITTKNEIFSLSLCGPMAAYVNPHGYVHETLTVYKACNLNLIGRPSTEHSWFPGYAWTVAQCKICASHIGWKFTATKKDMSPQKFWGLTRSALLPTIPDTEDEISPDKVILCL
Sequence of GSPT1 (Q16531 whole entry partner): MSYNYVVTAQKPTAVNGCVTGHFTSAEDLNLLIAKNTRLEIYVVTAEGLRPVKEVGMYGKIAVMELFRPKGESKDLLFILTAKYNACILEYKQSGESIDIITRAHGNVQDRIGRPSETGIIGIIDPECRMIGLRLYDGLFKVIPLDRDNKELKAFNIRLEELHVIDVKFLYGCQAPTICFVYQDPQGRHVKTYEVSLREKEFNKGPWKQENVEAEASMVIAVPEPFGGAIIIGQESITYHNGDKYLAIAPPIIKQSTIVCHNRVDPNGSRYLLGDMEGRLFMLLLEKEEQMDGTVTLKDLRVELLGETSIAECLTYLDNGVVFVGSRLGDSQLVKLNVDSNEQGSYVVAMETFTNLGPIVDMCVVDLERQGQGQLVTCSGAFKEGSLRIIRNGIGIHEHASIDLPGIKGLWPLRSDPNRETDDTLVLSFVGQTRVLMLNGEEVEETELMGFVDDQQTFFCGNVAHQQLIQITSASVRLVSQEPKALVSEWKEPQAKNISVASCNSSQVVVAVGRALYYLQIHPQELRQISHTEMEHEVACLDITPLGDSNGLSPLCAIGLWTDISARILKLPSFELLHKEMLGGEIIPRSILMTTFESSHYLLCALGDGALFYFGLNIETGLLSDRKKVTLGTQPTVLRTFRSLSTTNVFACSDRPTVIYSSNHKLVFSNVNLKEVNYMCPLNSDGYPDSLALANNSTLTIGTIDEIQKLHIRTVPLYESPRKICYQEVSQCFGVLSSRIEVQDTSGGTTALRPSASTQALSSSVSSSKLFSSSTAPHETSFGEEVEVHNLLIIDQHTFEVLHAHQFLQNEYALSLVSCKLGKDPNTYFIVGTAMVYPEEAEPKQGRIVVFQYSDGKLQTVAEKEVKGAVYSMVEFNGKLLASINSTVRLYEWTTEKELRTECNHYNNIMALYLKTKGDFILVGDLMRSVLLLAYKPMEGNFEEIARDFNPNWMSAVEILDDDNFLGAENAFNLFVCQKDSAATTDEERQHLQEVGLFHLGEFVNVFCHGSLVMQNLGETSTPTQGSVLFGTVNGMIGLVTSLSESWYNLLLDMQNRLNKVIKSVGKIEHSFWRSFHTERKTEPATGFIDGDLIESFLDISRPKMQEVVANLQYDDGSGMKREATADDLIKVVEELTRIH

Row | Compound | DC50 (IKZF2 (Helios)) | DC50 (IKZF3 (Aiolos)) | DC50 (IKZF1 (Ikaros)) | IKZF2 % Degradation @ 1 μM (IKZF2 (Helios)) | DC50 (GSPT1)
1 | O=C1CCC(N2Cc3cc(O[C@@H]4CCCC[C@@H]4N4CC(c5ccccc5)C4)ccc3C2=O)C(=O)N1 (stereo partly drawn) [Compound 13, 3-(1-oxo-5-(((1R,2S)-2-(3-phenylazetidin-1-yl)cyclohexyl)oxy)isoindolin-2-yl)piperidine-2,6-dione] | > 30 µM | > 30 µM | > 30 µM |  | 
2 | O=C1CCC(N2Cc3cc(O[C@H]4CCCC[C@@H]4N4CCC(c5ccccc5)C4)ccc3C2=O)C(=O)N1 (stereo partly drawn) [Compound 1, 3-(1-oxo-5-(((1S,2S)-2-(3-phenylpyrrolidin-1-yl)cyclohexyl)oxy)isoindolin-2-yl)piperidine-2,6-dione] | 0.024 µM | > 30 µM | > 30 µM | 79.9% | > 30 µM
3 | O=C1CCC(N2Cc3cc(O[C@H]4CCCC[C@@H]4N4CC(c5ccccc5Cl)C4)ccc3C2=O)C(=O)N1 (stereo partly drawn) [Compound 15, 3-(5-(((1S,2S)-2-(3-(2-chlorophenyl)azetidin-1-yl)cyclohexyl)oxy)-1-oxoisoindolin-2-yl)piperidine-2,6-dione] | 0.004 µM | > 30 µM | > 30 µM | 78.9% | 
4 | COc1ccccc1C1CN([C@H]2CCCC[C@@H]2Oc2ccc3c(c2)CN(C2CCC(=O)NC2=O)C3=O)C1 (stereo partly drawn) [Compound 19, 3-(5-(((1S,2S)-2-(3-(2-methoxyphenyl)azetidin-1-yl)cyclohexyl)oxy)-1-oxoisoindolin-2-yl)piperidine-2,6-dione] | 0.004 µM | > 30 µM | > 30 µM | 84.5% | 
5 | O=C1CCC(N2Cc3cc(O[C@H]4CCCC[C@@H]4N4CC(c5ccc(-n6cccn6)cc5)C4)ccc3C2=O)C(=O)N1 (stereo partly drawn) [Compound 31, 3-(5-(((1S,2S)-2-(3-(4-(1H-pyrazol-1-yl)phenyl)azetidin-1-yl)cyclohexyl)oxy)-1-oxoisoindolin-2-yl)piperidine-2,6-dione] | 0.0005 µM | > 30 µM | > 30 µM | 83.3% | 
6 | O=C1CCC(N2Cc3cc(O[C@H]4CCCC[C@@H]4N4CC(c5ccccc5F)C4)ccc3C2=O)C(=O)N1 (stereo in doubt) [Compound 27] | 0.005 µM | > 30 µM | > 30 µM | 82.1% | 
7 | O=C1CCC(N2Cc3cc(O[C@H]4CCCC[C@@H]4N4CC(c5ccc(F)c(F)c5)C4)ccc3C2=O)C(=O)N1 (stereo partly drawn) [Compound 23, 3-(5-(((1S,2S)-2-(3-(3,4-difluorophenyl)azetidin-1-yl)cyclohexyl)oxy)-1-oxoisoindolin-2-yl)piperidine-2,6-dione] | 0.005 µM | > 30 µM | > 30 µM | 79.2% | > 30 µM
8 | O=C1CC[C@H](N2Cc3cc(O[C@@H]4CCCC[C@H]4N4CC(c5ccccc5)C4)ccc3C2=O)C(=O)N1 [Compound 14, (S)-3-(1-oxo-5-(((1R,2R)-2-(3-phenylazetidin-1-yl)cyclohexyl)oxy)isoindolin-2-yl)piperidine-2,6-dione] | 0.292 µM | > 30 µM | > 30 µM | 33.5% | 
9 | O=C1CC[C@H](N2Cc3cc(O[C@H]4CCCC[C@@H]4N4CC(c5ccccc5)C4)ccc3C2=O)C(=O)N1 [Compound 10, (S)-3-(1-oxo-5-(((1S,2S)-2-(3-phenylazetidin-1-yl)cyclohexyl)oxy)isoindolin-2-yl)piperidine-2,6-dione] | 0.006 µM | > 30 µM | > 30 µM | 78.7% | > 30 µM
10 | O=C1CCC(N2Cc3cc(O[C@@H]4CCCC[C@H]4N4CC(c5ccccc5)C4)ccc3C2=O)C(=O)N1 (stereo partly drawn) [Compound 11, 3-(1-oxo-5-(((1R,2R)-2-(3-phenylazetidin-1-yl)cyclohexyl)oxy)isoindolin-2-yl)piperidine-2,6-dione] | > 30 µM | > 30 µM | > 30 µM |  | 
